System: H9c2
Assay: Cytoprotective activity against tBOOH-induced oxidative stress in rat H9c2 cells after 2 hrs by SRB assay
Format: functional, cell-based
Conditions: H9c2, 2 h

| Compound | IC50 [nM] |
| --- | --- |
| c1ccc(-c2nc3cccc(NC4CCOC4)c3[nH]2)cc1 (configuration not stated) | 2000 |
| c1ccc(-c2nc3cccc(NC4CCCC4)c3[nH]2)cc1 | 600 |
